Here are results for 23 molecules from patent publication US8063065B2, “Azaindazole compounds as CCR1 receptor antagonists” (Boehringer Ingelheim International GmbH, priority 2008, dated 2011).

This assay has as its target T1, CCR1 (Homo sapiens, UniProt P32246).
T1 sequence (P32246 1-355): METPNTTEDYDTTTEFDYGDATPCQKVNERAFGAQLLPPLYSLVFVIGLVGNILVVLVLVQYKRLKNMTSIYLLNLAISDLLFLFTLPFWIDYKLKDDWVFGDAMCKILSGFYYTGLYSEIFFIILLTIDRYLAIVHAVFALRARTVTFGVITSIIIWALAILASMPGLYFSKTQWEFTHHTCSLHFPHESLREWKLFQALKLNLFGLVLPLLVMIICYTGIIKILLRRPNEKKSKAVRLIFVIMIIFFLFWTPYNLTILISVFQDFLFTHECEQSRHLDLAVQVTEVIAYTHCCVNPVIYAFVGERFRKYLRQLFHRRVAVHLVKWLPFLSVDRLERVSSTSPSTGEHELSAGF
Description: Method B: calcium flux in CCR1 transfected cells (Calcium 4 dye, […] FDSS6000), block of the CCR1/MIP-1α interaction. Conditions: Method B: Calcium 4 dye, MIP-1alpha at EC80. The class given is cell-based. In short, it runs like this:
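Calcium flux on an FDSS6000 was triggered by MIP-1α at its EC80 in stably CCR1/G-alpha-16-expressing non-adherent cells. Before this, Calcium 4-loaded cells were preincubated with compound in HBSS, 20 mM HEPES pH 7.4, 1% DMSO: 30 min at 37 C plus 30 min at room temperature. Ten 4-fold doses began at 3,000 nM, with ±MIP-1α DMSO wells as controls.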
(A change in cytosolic calcium serves as a functional read-out for many receptors and channels.)

By IC50 is commonly meant the concentration at which inhibition is half-maximal. On to `CC[C@H](NC(=O)c1cncc2c1cnn2-c1ccc(F)cc1)c1ccnc(C(C)(C)O)c1` [1-(4-Fluorophenyl)-1H-pyrazolo[3,4-c]pyridine-4-carboxylic acid {(S)-1-[2-(1-hydroxy-1-methyl-ethyl)-pyridin-4-yl]-propyl}-amide], for which the IC50 was 0.5 nM. Turning to `CCC(NC(=O)c1cncc2c1cnn2-c1ccc(F)cc1)c1nc(C(=O)NCC#N)co1` (centres unmarked) [1-(4-Fluorophenyl)-1H-pyrazolo[3,4-c]pyridine-4-carboxylic acid {1-[4-(cyanomethyl-carbamoyl)-oxazol-2-yl]-propyl}-amide], the IC50 came to 25 nM. `CCC(NC(=O)c1cncc2c1cnn2-c1ccc(F)cc1)c1nc(C(=O)NCC(N)=O)c(C)o1` (centres unmarked) [1-(4-Fluorophenyl)-1H-pyrazolo[3,4-c]pyridine-4-carboxylic acid {1-[4-(carbamoylmethyl-carbamoyl)-5-methyl-oxazol-2-yl]-propyl}-amide]: the IC50 was found to be 25 nM. In the case of `CC[C@H](NC(=O)c1cncc2c1cnn2-c1ccc(F)cc1)c1cc(Cl)nc(S(C)(=O)=O)c1` [1-(4-Fluorophenyl)-1H-pyrazolo[3,4-c]pyridine-4-carboxylic acid [(S)-1-(2-chloro-6-methanesulfonyl-pyridin-4-yl)-propyl]-amide], the IC50 was determined as 0.3 nM.

For the molecule `C[C@H](NC(=O)c1cncc2c1cnn2-c1ccc(F)cc1)c1cc(N(C)CC(N)=O)nc(S(C)(=O)=O)c1` [1-(4-Fluorophenyl)-1H-pyrazolo[3,4-c]pyridine-4-carboxylic acid {(S)-1-[2-(carbamoylmethyl-methyl-amino)-6-methanesulfonyl-pyridin-4-yl]-ethyl}-amide], the concentration for half-maximal inhibition (IC50) stood at 1 nM.

Take `CC[C@H](NC(=O)c1cncc2c1cnn2-c1ccc(F)cc1)c1ccc(OC)c(S(C)(=O)=O)c1` [1-(4-Fluorophenyl)-1H-pyrazolo[3,4-c]pyridine-4-carboxylic acid [(S)-1-(3-methanesulfonyl-4-methoxy-phenyl)-propyl]-amide]: the IC50 amounted to 6 nM.

Take `O=C(NCc1cnc(N2CCOCC2)s1)c1cncc2c1cnn2-c1ccc(F)cc1` [1-(4-Fluorophenyl)-1H-pyrazolo[3,4-c]pyridine-4-carboxylic acid (2-morpholin-4-yl-thiazol-5-ylmethyl)-amide]: the concentration for half-maximal inhibition (IC50) stood at 16 nM. As for `C[C@H](NC(=O)c1cncc2c1cnn2-c1ccc(F)cc1)c1cccc(S(N)(=O)=O)n1` [1-(4-Fluorophenyl)-1H-pyrazolo[3,4-c]pyridine-4-carboxylic acid [(S)-1-(6-sulfamoyl-pyridin-2-yl)-ethyl]-amide], the figure is 15 nM; as for `CC[C@H](NC(=O)c1cncc2c1cnn2-c1ccc(F)cc1)c1ccnc(C)c1` [1-(4-Fluorophenyl)-1H-pyrazolo[3,4-c]pyridine-4-carboxylic acid [(S)-1-(2-methyl-pyridin-4-yl)-propyl]-amide], 0.9 nM; as for `CC[C@H](NC(=O)c1cncc2c1cnn2-c1ccc(F)cc1)c1ccnc(N2CCC(F)(F)CC2)c1` [1-(4-Fluorophenyl)-1H-pyrazolo[3,4-c]pyridine-4-carboxylic acid [(S)-1-(4,4-difluoro-3,4,5,6-tetrahydro-2H-[1,2′]bipyridinyl-4′-yl)-propyl]-amide], 3 nM.

With `CC[C@H](NC(=O)c1cncc2c1cnn2-c1ccc(F)cc1)c1ccnc([S@@+](C)[O-])c1` [1-(4-Fluorophenyl)-1H-pyrazolo[3,4-c]pyridine-4-carboxylic acid {(S)-1-[2-((R)-methanesulfinyl)-pyridin-4-yl]-propyl}-amide], the IC50 is 0.6 nM.

Turning to `COC(=O)C[C@H](NC(=O)c1cncc2c1cnn2-c1ccc(F)cc1)c1ccnc(S(C)(=O)=O)c1` [(S)-3-{[1-(4-Fluorophenyl)-1H-pyrazolo[3,4-c]pyridine-4-carbonyl]-amino}-3-(2-methanesulfonyl-pyridin-4-yl)-propionic acid methyl ester], the IC50 worked out at 4 nM. The result for `CC[C@H](NC(=O)c1cncc2c1cnn2-c1ccc(F)cc1)c1ccc(S(=O)(=O)CC)nc1` [1-(4-Fluorophenyl)-1H-pyrazolo[3,4-c]pyridine-4-carboxylic acid [(S)-1-(6-ethanesulfonyl-pyridin-3-yl)-propyl]-amide] reads 0.3 nM.

Regarding `CCC(NC(=O)c1cncc2c1cnn2-c1ccc(F)cc1)c1nc(C(=O)NCC#N)c(C)o1` (centres unmarked) [1-(4-Fluorophenyl)-1H-pyrazolo[3,4-c]pyridine-4-carboxylic acid {1-[4-(cyanomethyl-carbamoyl)-5-methyl-oxazol-2-yl]-propyl}-amide], the IC50 is 18 nM. Regarding `CN(c1ncc(CNC(=O)c2cncc3c2cnn3-c2ccc(F)cc2)cn1)S(C)(=O)=O` [1-(4-Fluorophenyl)-1H-pyrazolo[3,4-c]pyridine-4-carboxylic acid [2-(methanesulfonyl-methyl-amino)-pyrimidin-5-ylmethyl]-amide], the IC50 was 2 nM. With `CCOC(=O)Cn1ccc([C@H](CC)NC(=O)c2cncc3c2cnn3-c2ccc(F)cc2)n1` [[3-((S)-1-{[1-(4-Fluorophenyl)-1H-pyrazolo[3,4-c]pyridine-4-carbonyl]-amino}-propyl)-pyrazol-1-yl]-acetic acid ethyl ester], the IC50 was 11 nM. With `CC[C@H](NC(=O)c1cncc2c1cnn2-c1ccc(F)cc1)c1ccc(OC)c(Br)c1` [1-(4-Fluorophenyl)-1H-pyrazolo[3,4-c]pyridine-4-carboxylic acid [(S)-1-(3-bromo-4-methoxy-phenyl)-propyl]-amide], the IC50 stood at 7 nM.

As to `CCOC(=O)Cn1cc([C@H](CC)NC(=O)c2cncc3c2cnn3-c2ccc(F)cc2)cn1` [[4-((S)-1-{[1-(4-Fluorophenyl)-1H-pyrazolo[3,4-c]pyridine-4-carbonyl]-amino}-propyl)-pyrazol-1-yl]-acetic acid ethyl ester], the IC50 turned out to be 25 nM. As to `CC[C@H](NC(=O)c1cncc2c1cnn2-c1ccc(F)cc1)c1ccnc(C(=O)O)c1` [4-((S)-1-{[1-(4-Fluorophenyl)-1H-pyrazolo[3,4-c]pyridine-4-carbonyl]-amino}-propyl)-pyridine-2-carboxylic acid], the IC50 was determined as 12 nM. As for `CC[C@H](NC(=O)c1cncc2c1cnn2-c1ccc(F)cc1)c1cc(S(C)(=O)=O)co1` [1-(4-Fluorophenyl)-1H-pyrazolo[3,4-c]pyridine-4-carboxylic acid [(S)-1-(4-methanesulfonyl-furan-2-yl)-propyl]-amide], the figure is 6 nM; as for `CC[C@H](NC(=O)c1cncc2c1cnn2-c1ccc(F)cc1)c1ccnc(-c2nnn[nH]2)c1` [1-(4-Fluorophenyl)-1H-pyrazolo[3,4-c]pyridine-4-carboxylic acid {(S)-1-[2-(1H-tetrazol-5-yl)-pyridin-4-yl]-propyl}-amide], 3 nM; as for `CCC(NC(=O)c1cncc2c1cnn2-c1ccc(F)cc1)c1cnc(N(C)S(C)(=O)=O)nc1` (centres unmarked) [1-(4-Fluorophenyl)-1H-pyrazolo[3,4-c]pyridine-4-carboxylic acid {1-[2-(methanesulfonyl-methyl-amino)-pyrimidin-5-yl]-propyl}-amide], 7 nM. Turning to `CC[C@H](NC(=O)c1cncc2c1cnn2-c1ccc(F)cc1)c1ccnc(N2CCS(=O)(=O)CC2)c1` [1-(4-Fluorophenyl)-1H-pyrazolo[3,4-c]pyridine-4-carboxylic acid {(S)-1-[2-(1,1-dioxo-1λ6-thiomorpholin-4-yl)-pyridin-4-yl]-propyl}-amide], the IC50 stood at 12 nM.
